Measured values from patent US10301257B2, “Use of acylsulfonamides for improving plant yield” (BAYER INTELLECTUAL PROPERTY GMBH, priority 2011, dated 2019).

Columns and labels:
Type in all cases: in vivo
corn [1] = assay: Field trial: grain yield of corn, sequential application of Cyprosulfamide
Source text: (§1) The trials have been carried out under natural field conditions (plot trials, 10 square meter plots, 2-4 replications). The applications have been done with seed treatment, pre- or post-emergence treatments straight (alone, 1 application) or sequential treatments e.g. seed treatment followed by pre-emergence and/or post-emergence spray applications. The pre- or post-emergence applications were made with spray applications using 100-300 I/water per hectare. The growth stage of the crops species at the time of application are reported in the result tables. The dose rates of the herbicidal active ingredients applied alone respective in sequential application are also described in the result tables. The assessments have been done via visual ratings (0-100% scale) or counting. The trials have been harvested after crops reached the full maturity. After the harvest the total weight of kernels/seeds/beets per plot was measured. The results are reported as means over 2-4 replications. The time between applications and assessments or countings/harvest are described in the result tables as well. The active ingredients have been applied to the untreated, dry seeds together with a carrier. After a short period of time to let the seeds dry, they were ready to be sown in the pot or field using standard equipments.

spring wheat [2] = assay: Field trial: grain yield of spring wheat, postemergence application of Cyprosulfamide
Source text: (§2) The trials have been carried out under natural field conditions (plot trials, 10 square meter plots, 2-4 replications).
(§3) The applications have been done with seed treatment, pre- or post-emergence treatments straight (alone, 1 application) or sequential treatments e.g. seed treatment followed by pre-emergence and/or post-emergence spray applications. The pre- or post-emergence applications were made with spray applications using 100-300 I/water per hectare. The growth stage of the crops species at the time of application are reported in the result tables. The dose rates of the herbicidal active ingredients applied alone respective in sequential application are also described in the result tables.
(§4) The assessments have been done via visual ratings (0-100% scale) or counting. The trials have been harvested after crops reached the full maturity. After the harvest the total weight of kernels/seeds/beets per plot was measured. The results are reported as means over 2-4 replications. The time between applications and assessments or countings/harvest are described in the result tables as well.

sugarbeet = assay: Field trial: sugar and beet yield of sugarbeet, sequential application of Cyprosulfamide; details: 0.15 mg ai/seed fb 3 × 50 g ai/ha post, 44 days after last postemergence treatment
Source text: as §1

canola [3] = assay: Field trial: grain yield of canola, sequential application of Cyprosulfamide
Source text: as §1

soybeans = assay: Field trial: grain yield of soybeans, postemergence application of Cyprosulfamide; details: 100 g ai/ha
Source text: as §2, §3, §4

winter wheat [4] = assay: Field trial: grain yield of winter wheat, preemergence application of Cyprosulfamide
Source text: as §2, §3, §4

corn [5] = assay: Field trial: biomass yield and plant density of corn, sequential application of Cyprosulfamide; details: 0.15 g ai/kg seed fb 3 × 50 g ai/ha post, 98 days after emergence
Source text: as §1

canola [6] = assay: Field trial: grain yield of canola, postemergence treatment with Cyprosulfamide
Source text: as §2, §3, §4

cotton = assay: Field trial: lint yield of cotton, postemergence application of Cyprosulfamide; details: 100 g ai/ha
Source text: as §2, §3, §4

spring wheat [7] = assay: Field trial: gluten content of spring wheat grains, postemergence application of Cyprosulfamide; details: 35 days after application
Source text: as §2, §3, §4

winter wheat [8] = assay: Field trial: grain yield (g/1000 kernel) of winter wheat, seed treatment with Cyprosulfamide; details: 1 g ai/kg seed
Source text: as §1

rice = assay: Field trial: grain yield of rice, sequential application of Cyprosulfamide
Source text: as §1

corn (maize) = assay: Field trial: grain yield of corn (maize) after seed treatment with Cyprosulfamide; details: for Difference(%) vs. UTC / Relative %: corn (maize) grain yield; for Relative %: UTC = 100%; for Yield (grain yield at harvest): corn (maize), seed treatment prior planting, 110 days after planting (short season variety)
Source text: as §1

corn [9] = assay: Field trial: grain yield of corn, postemergence application of Cyprosulfamide
Source text: as §2, §3, §4

rice plants = assay: Field trial: germination and emergence of rice plants after seed treatment with Cyprosulfamide
Source text: as §1

spring wheat [10] = assay: Field trial: grain yield of spring wheat, postemergence cyprosulfamide (CPA) + epoxiconazole (EPC)
Source text: as §2, §3, §4

[11] = system: spring oilseed rape (canola); assay: Field trial: grain yield of spring oilseed rape (canola), postemergence CPA + tebuconazole (TBC)
Source text: as §2, §3, §4

Question: For `COc1ccccc1C(=O)NS(=O)(=O)c1ccc(C(=O)NC2CC2)cc1` [Cyprosulfamide, cyprosulfamide], which “Difference(%) vs. UTC” value (corn [1]; corn grain yield, sequential application) is on record?
Answer: The value was “+38%”.

Question: And the Relative (corn [1]; corn grain yield, sequential application, UTC = 100%)?
Answer: Its Relative is 138%.

Question: What about the “Yield (grain yield at harvest)” value (corn [1]; corn, 0.15 g ai/kg seed fb 3 × 50 g ai/ha post (2-4 leaves, 6-8 leaves, preflowering), 98 days after emergence) of the same compound?
Answer: The value was 14.1 t/ha.

Question: And the “Difference(%) vs. UTC” value (spring wheat [2]; spring wheat grain yield, 100 g ai/ha postemergence)?
Answer: The value was “+8%”.

Question: What about the “Yield (grain yield at harvest)” value (spring wheat [2]; spring wheat, postemergence at beginning of emergence of the ears (GS49), 100 g ai/ha, 48 days after application) of the same compound?
Answer: Its value is 3.83 t/ha.

Question: And the “Yield of beets (storage root/body) by weight at harvest” value (sugarbeet; UTC 59.3)?
Answer: The value was 61.3 t/ha.

Question: What about the “Sugar Yield at harvest” value (sugarbeet; UTC 5778) of the same compound?
Answer: The value was 6110 kg/ha.

Question: And the “Difference(%) vs. UTC” value (canola [3]; canola grain yield, sequential application)?
Answer: Its value is “+24%”.

Question: What about the Relative (canola [3]; canola grain yield, sequential application, UTC = 100%) of the same compound?
Answer: Its Relative is 124%.

Question: What about the “Yield (grain yield at harvest)” value (canola [3]; canola, 0.5 g ai/kg seed fb 3 × 50 g ai/ha post (4-6 leaves, stem elongation, beginning of flowering), 63 days after application) of the same compound?
Answer: Its value is 3.47 t/ha.

Question: What about the “Difference(%) vs. UTC” value (soybeans; soybean grain yield) of the same compound?
Answer: Its value is “+5%”.

Question: And the Relative (soybeans; soybean grain yield, UTC = 100%)?
Answer: Its Relative is 105%.

Question: What about the “Yield (grain yield at harvest)” value (soybeans; soybeans, postemergence preflowering (GS 60), 45 days after application) of the same compound?
Answer: The value was 2.78 t/ha.

Question: What about the “Difference(%) vs. UTC” value (winter wheat [4]; winter wheat grain yield, 100 g ai/ha preemergence) of the same compound?
Answer: The value was “+11%”.

Question: And the Relative % (winter wheat [4]; winter wheat grain yield, 100 g ai/ha preemergence, UTC = 100%)?
Answer: The Relative % was 111%.

Question: And the “Yield (grain yield at harvest)” value (winter wheat [4]; winter wheat, preemergence autumn, 100 g ai/ha, 247 days after application)?
Answer: The value was 5.88 t/ha.

Question: What about the “Yield: Biomass yield at harvest” value (corn [5]; UTC 6.0) of the same compound?
Answer: The value was 7.5 t/ha.

Question: And the “Yield: Plant density at harvest” value (corn [5]; UTC 14)?
Answer: Its value is 17.3 plants/sqm.

Question: What about the “Difference(%) vs. UTC” value (canola [6]; canola grain yield, 100 g ai/ha postemergence) of the same compound?
Answer: The value was “+19%”.

Question: What about the Relative (canola [6]; canola grain yield, 100 g ai/ha postemergence, UTC = 100%) of the same compound?
Answer: Its Relative is 119%.

Question: What about the “Yield (grain yield at harvest)” value (canola [6]; canola, postemergence GS 52 pre flowering, 100 g ai/ha, 63 days after treatment) of the same compound?
Answer: The value was 2.62 t/ha.

Question: What about the “Difference(%) vs. UTC” value (cotton; cotton lint yield) of the same compound?
Answer: The value was “+16%”.

Question: And the Relative (cotton; cotton lint yield, UTC = 100%)?
Answer: Its Relative is 116%.

Question: What about the “Yield t/ha (lint)” value (cotton; cotton lints at harvest, postemergence preflowering (GS 55), 90 days after application) of the same compound?
Answer: The value was 0.254 t/ha.

Question: What about the “Yield Relative: relative gluten content in harvested grains” value (spring wheat [7]; 100 g ai/ha at ear emergence, UTC = 100%) of the same compound?
Answer: Its value is 109%.

Question: And the “Yield: gluten content (absolute) in harvested grains” value (spring wheat [7]; postemergence at ear emergence, 100 g ai/ha)?
Answer: Its value is 30.9.

Question: And the “Difference(%) vs. UTC” value (winter wheat [8]; winter wheat g/1000 kernel)?
Answer: The value was “+8%”.

Question: What about the Relative (winter wheat [8]; winter wheat g/1000 kernel, UTC = 100%) of the same compound?
Answer: Its Relative is 108%.

Question: What about the “Yield (grain yield at harvest)” value (winter wheat [8]; winter wheat, seed treatment prior planting, 290 days after planting) of the same compound?
Answer: Its value is 39.2 g/1000 kernel.

Question: What about the “Difference(%) vs. UTC” value (rice; rice grain yield, sequential application) of the same compound?
Answer: The value was “+5%”.

Question: What about the Relative (rice; rice grain yield, sequential application, UTC = 100%) of the same compound?
Answer: The Relative was 105%.

Question: And the “Yield (grain yield at harvest)” value (rice; rice, 0.5 g ai/kg seed fb 3 × 50 g ai/ha post, 75 days after last application)?
Answer: Its value is 5.74 t/ha.

Question: What about the “Difference(%) vs. UTC” value (corn (maize); 0.15 mg ai/seed) of the same compound?
Answer: The value was “+12%”.

Question: What about the Relative % (corn (maize); 0.15 mg ai/seed) of the same compound?
Answer: The Relative % was 112%.

Question: What about the “Difference(%) vs. UTC” value (corn (maize); 0.225 mg ai/seed) of the same compound?
Answer: Its value is “+13%”.

Question: And the Relative % (corn (maize); 0.225 mg ai/seed)?
Answer: Its Relative % is 113%.

Question: What about the “Yield (grain yield at harvest)” value (corn (maize); 0.15 mg ai/seed) of the same compound?
Answer: The value was 8.32 t/ha.

Question: And the “Yield (grain yield at harvest)” value (corn (maize); 0.225 mg ai/seed)?
Answer: The value was 8.39 t/ha.

Question: And the “Difference(%) vs. UTC” value (corn [9]; corn grain yield, 100 g ai/ha postemergence)?
Answer: Its value is “+28%”.

Question: And the Relative (corn [9]; corn grain yield, 100 g ai/ha postemergence, UTC = 100%)?
Answer: The Relative was 128%.

Question: What about the “Yield (grain yield at harvest)” value (corn [9]; corn, postemergence at 6-8 leaves, 100 g ai/ha, 130 days after application) of the same compound?
Answer: The value was 5.60 t/ha.

Question: And the “Difference(%) vs. UTC” value (rice plants; rice plants/10 m^2, 0.5 g ai/kg seed)?
Answer: Its value is “+23%”.

Question: And the Relative (rice plants; rice plants/10 m^2, 0.5 g ai/kg seed, UTC = 100%)?
Answer: Its Relative is 123%.

Question: And the “plants/10 m^2 (germination and emergence)” value (rice plants; rice, seed treatment 0.5 g ai/kg seed, 12 days after emergence)?
Answer: Its value is 208 plants/10 m^2.

Question: For `Fc1ccc([C@]2(Cn3cncn3)O[C@H]2c2ccccc2Cl)cc1` (racemic) [EPC, epoxiconazole], which “Difference(%) vs. UTC” value (spring wheat [10]; spring wheat grain yield, EPC 125, CPA + EPC 100 + 125 g ai/ha) is on record?
Answer: The value was “+9.7%”.

Question: And the Relative % (spring wheat [10]; spring wheat grain yield, EPC 125, CPA + EPC 100 + 125 g ai/ha, UTC = 100%)?
Answer: The Relative % was 109.7%^.

Question: And the “Yield (grain yield at harvest)” value (spring wheat [10]; spring wheat, post-emergence spring, flag leaf sheath opening, EPC 125 g ai/ha, CPA + EPC 100 + 125 g ai/ha, 55 days after application, UTC 1.84)?
Answer: The value was 2.02 t/ha.

Question: Which “Difference(%) vs. UTC” value ([11]; canola grain yield, TBC 150, CPA + TBC 100 + 150 g ai/ha) does the source give for `CC(C)(C)C(O)(CCc1ccc(Cl)cc1)Cn1cncn1` (centres unmarked) [TBC, tebuconazole] here?
Answer: Its value is “+1.8%”.

Question: And the Relative % ([11]; canola grain yield, TBC 150, CPA + TBC 100 + 150 g ai/ha, UTC = 100%)?
Answer: Its Relative % is 101.8%.

Question: And the “Yield (grain yield at harvest)” value ([11]; spring oilseed rape (canola), post-emergence spring, beginning of flowering, TBC 150 g ai/ha, CPA + TBC 100 + 150 g ai/ha, 92 days after application, UTC 3.91)?
Answer: The value was 3.91 t/ha.
